Entries after “also recorded” stand apart in the source; their conditions may differ. Read-outs that look alike come from different tables or passages of the source. Marks after values point to notes of the source that are not given here.
Tests used:
[1] = cited from earlier work
Description: We reasonably fitted the plots of concentrations versus time with one-compartment models for most serum samples (n = 837) collected during the trough period (156 samples were collected during the approach peak period).

[2] = Population pharmacokinetic analysis of vancomycin (nonlinear mixed-effects modeling, Kinetica, one-compartment model)
Description: Data collected from patients’ medical records included age, total body weight, Sex, creatinine level, drug combination, and burn and continuous renal replacement therapy status (Burn-S, CRRT-S).
A total of 837 trough concentration (Ctrough) blood samples were collected 0.5 h before the next dose (after CRRT treatment for CRRT treatment patients), and 156 samples were collected at approach peak concentration (1 h after the peak concentration), both at the steady state (after the 6th dose) for most patients. All the samples (3–5 ml) were placed in 10 ml tubes containing coagulant and then centrifuged at 3000 rpm for 5 min. The supernatant serum was stored at − 80 °C for further testing.
The multilevel calibration was 0.4–100.0 μg/ml with calibration line slope consistently > 0.999. The RSD of intra-day and inter-day assays were less than 7%, and the recovery rate was 95.5–103.2%. Serum creatinine was detected by the creatine oxidase method with a biochemistry analyzer (Beckmann CX5).
As most of the trough concentrations of vancomycin was collected from sparse data at steady state, we fit the data with a one-compartment model to retrieve the pharmacokinetic parameters (CL and V).The covariate models and interindividual variability were expressed as following equation: βi=Ziβ+ηj, where βj denote as the parameter for the jth subject; Zj is amatrix depending on the covariates Zj. When no covariates are included, β is the (p*1) vector of the mean parameters; ηj is the interindividual variability that is assumed normal distribution with mean 0 and covariance matrix C (p*p).

[3] = Vancomycin serum concentrations (trough and approach peak) by HPLC; format: in vivo, human; details: n = 374 ICU patients
Description: Ctrough means trough concentration that of blood samples collected 0.5 h before the next dose; Cappro peak means approach peak concentration that of the blood samples collected 1 h after completion of drug infusion.

[4] = Christine, 102 patients, unstable renal function
[5] = used as initial estimate, Chinese adult patients, ref Ji et al. [6]
[6] = values reported by other studies in non-ICU patients
[7] = basic model (no covariates), Chinese ICU adult patients, population mean (RSE%)

In the case of `CN[C@H](CC(C)C)C(=O)N[C@H]1C(=O)N[C@@H](CC(N)=O)C(=O)N[C@H]2C(=O)N[C@H]3C(=O)N[C@H](C(=O)N[C@H](C(=O)O)c4cc(O)cc(O)c4-c4cc3ccc4O)[C@H](O)c3ccc(c(Cl)c3)Oc3cc2cc(c3O[C@@H]2O[C@H](CO)[C@@H](O)[C@H](O)[C@H]2O[C@H]2C[C@](C)(N)[C@H](O)[C@H](C)O2)Oc2ccc(cc2Cl)[C@H]1O` [vancomycin], the “Final model of CL” value [1, 4] is listed as “CL(L·h^−1) = 2.97*(1 + 0.0205*(CLCr − CLCrMedian))”, the V [1, 4] is listed as 1.24 L/kg and the V ([1]; ICU patients with Cr > 88.4 μmol/l) is listed as 148.19 L. The V ([1]; ICU patients with Cr value below 88.4 μmol/l) was 59.86 L, the “Final model of CL” value ([1]; Llopis, 30 ICU patients) was “CL(L·h^−1) = 0.034*CLCr(ml·min^−1) + 0.015* TBW” and the “Final model of Vc (central compartment volume)” value ([1]; Llopis, 30 ICU patients) was “Vc (L) = 0.414* TBW”. The “Final model of Vp (peripheral compartment volume)” value ([1]; Llopis, 30 ICU patients) was “Vp (L) = 1.32*TBW”, the “Final model of CL” value ([1]; Natalia, 191 ICU patients) was “CL(ml·min^−1·kg^−1) = 0.67*CLCr (ml·min^−1 ·kg^−1) + AGE^−0.24” and the “Final model of V” value ([1]; Natalia, 191 ICU patients) was “V (L·kg^−1) = 0.82*2.49^A, A = 0 or 1 if Cr ≤ 88.4 or Cr > 88.4 μmol/L”. For the same compound, the “Final model of CL” value ([1]; Yasuhara, 190 adult Japanese, if CLCr < 85) was “CL(L·h^−1) = 0.0487*CLCr(ml·min^−1),”, the CL ([1]; Yasuhara, 190 adult Japanese, if CLCr > 85) was 3.51 L/h and the “initial pharmacokinetic parameter CL” value [1, 5] was 2.83 L/h. For the same compound, the “initial pharmacokinetic parameter V” value [1, 5] was 52.14 L, the CL [1, 6] was 2.89 to 5.93 L/h and the V [1, 6] was 31.24 to 91.76 L. For the same compound, the “CL (RSE%)” value [2, 7] was 2.63 (25.72) L/h, the “V (RSE%)” value [2, 7] was 55.32 (27.31) L and the “Final covariate equation of V” value ([2]; final model, Cr μmol/L, Age y, TBW kg) was “V = 46.47 − 0.04*Cr − 0.07*Age + 0.16* TBW”. The “Final covariate equation of CL” value ([2]; final model, DA dopamine (1 not used, 2 used), Cr μmol/L, Burn-S (1 burn > 50%, 2 < 50%), TBW kg, CRRT-S (1 CRRT, 2 not)) was “CL = 0.78 + 0.036*DA − 0.007*Cr − 0.43*Burn-S + 0.067*TBW + 0.41*CRRT-S; also recorded: CL =0.78 + 0.036*DA − 0.007*Cr -0.43* Burn-S + 0.067*TBW + 0.41* CRRT-S”, the “CL (RSE%)” value ([2]; final population model, Chinese ICU adult patients, one-compartment, EM algorithm, Kinetica 4.4.1, 294 patients for model building, serum HPLC, population mean) was 3.16 (56.01) L/h and the “Ctrough (trough concentration)” value ([3]; blood samples collected 0.5 h before the next dose, steady state (after the 6th dose), regimens 0.5 g qd to 1 g q12h) was 16.3 ± 12.4. The “Cappro peak (approach peak concentration)” value ([3]; blood samples collected 1 h after completion of drug infusion, steady state) was 36.0 ± 19.4.
